From the NIST ThermoML archive (doi:10.1021/je034162x)

Conditions: 101.33 kPa, Liquid, Hot wire method

C1=CC2C=CC1C2 [bicyclo[2.2.1]hepta-2,5-diene]
Conditions	thermal conductivity [W/m/K]	thermal diffusivity [m2/s]
258.57 K	0.1485	–
258.7 K	0.1484	–
258.8 K	0.1484	–
258.99 K	–	1.08e-07
259.32 K	–	1.08e-07
259.55 K	–	1.09e-07
276.78 K	0.1426	–
276.89 K	0.143	–
276.97 K	0.1429	–
277.21 K	–	1.02e-07
277.47 K	–	1.02e-07
277.66 K	–	1.01e-07
296.23 K	0.1371	–
296.35 K	0.1369	–
296.43 K	0.1368	–
296.61 K	–	9.43e-08
296.89 K	–	9.44e-08
297.1 K	–	9.45e-08
313.27 K	0.1315	–
313.38 K	0.1314	–
313.46 K	0.1313	–
313.63 K	–	8.85e-08
313.9 K	–	8.86e-08
314.1 K	–	8.86e-08
331.81 K	0.1256	–
331.91 K	0.1255	–
331.98 K	0.1254	–
332.15 K	–	8.25e-08
332.4 K	–	8.25e-08
332.57 K	–	8.24e-08

CCc1ccccc1 [ethylbenzene]
Conditions	thermal conductivity [W/m/K]	thermal diffusivity [m2/s]
258 K	0.1375	–
258.29 K	0.1374	–
258.5 K	0.1373	–
259.49 K	–	9.45e-08
260.41 K	–	9.43e-08
261.06 K	–	9.41e-08
277.34 K	0.1328	–
277.65 K	0.1327	–
277.88 K	0.1326	–
278.88 K	–	9.04e-08
279.84 K	–	9.02e-08
280.53 K	–	9.02e-08
295.86 K	0.1282	–
296.19 K	0.128	–
296.42 K	0.128	–
297.44 K	–	8.66e-08
298.45 K	–	8.67e-08
299.16 K	–	8.66e-08
312.38 K	0.124	–
312.72 K	0.1238	–
312.96 K	0.1237	–
313.99 K	–	8.29e-08
315.01 K	–	8.28e-08
315.73 K	–	8.28e-08
329.05 K	0.1199	–
329.41 K	0.1197	–
329.66 K	0.1196	–
330.69 K	–	7.97e-08
331.74 K	–	7.96e-08
332.49 K	–	7.95e-08

Cc1cccc(C)c1C [1,2,3-trimethylbenzene]
Conditions	thermal conductivity [W/m/K]	thermal diffusivity [m2/s]
257.62 K	0.1341	–
257.83 K	0.134	–
257.99 K	0.134	–
258.45 K	–	8.6e-08
259 K	–	8.55e-08
259.4 K	–	8.56e-08
276.36 K	0.1312	–
276.58 K	0.1312	–
276.73 K	0.1311	–
277.15 K	–	8.25e-08
277.71 K	–	8.21e-08
278.1 K	–	8.2e-08
283.35 K	0.1303	–
283.57 K	0.1302	–
283.74 K	0.1302	–
284.17 K	–	8.15e-08
284.73 K	–	8.14e-08
285.14 K	–	8.15e-08
295.58 K	0.1281	–
295.81 K	0.1279	–
295.99 K	0.1279	–
296.43 K	–	8.04e-08
297.01 K	–	8.01e-08
297.45 K	–	8.04e-08
312.79 K	0.1252	–
313.04 K	0.1252	–
313.21 K	0.1251	–
313.65 K	–	7.79e-08
314.26 K	–	7.81e-08
314.68 K	–	7.78e-08
330.74 K	0.1218	–
330.99 K	0.1218	–
331.17 K	0.1217	–
331.59 K	–	7.49e-08
332.23 K	–	7.53e-08
332.65 K	–	7.51e-08

C1CCCC1 [cyclopentane]
Conditions	thermal conductivity [W/m/K]	thermal diffusivity [m2/s]
257.08 K	0.1428	–
257.27 K	0.1426	–
257.4 K	0.1425	–
257.78 K	–	1.11e-07
258.26 K	–	1.11e-07
258.6 K	–	1.11e-07
276.13 K	0.1349	–
276.33 K	0.1348	–
276.47 K	0.1348	–
276.83 K	–	1.03e-07
277.31 K	–	1.03e-07
277.68 K	–	1.03e-07
293.63 K	0.1281	–
293.83 K	0.1279	–
293.97 K	0.1278	–
294.33 K	–	9.64e-08
294.82 K	–	9.62e-08
295.17 K	–	9.61e-08
300.67 K	0.1254	–
300.87 K	0.1253	–
301.01 K	0.1251	–
301.34 K	–	9.3e-08
301.83 K	–	9.29e-08
302.17 K	–	9.28e-08
316.21 K	0.1195	–
316.4 K	0.1193	–
316.54 K	0.1192	–
316.87 K	–	8.68e-08
317.34 K	–	8.66e-08
317.67 K	–	8.65e-08

C1CCCCCCC1 [cyclooctane]
Conditions	thermal conductivity [W/m/K]	thermal diffusivity [m2/s]
288.7 K	0.1205	–
288.96 K	0.1203	–
289.17 K	0.1202	–
289.34 K	–	7.48e-08
289.97 K	–	7.48e-08
290.48 K	–	7.48e-08
295.85 K	0.1191	–
295.88 K	0.1191	–
296.09 K	0.1189	–
296.21 K	0.1188	–
296.43 K	–	7.39e-08
296.51 K	–	7.35e-08
297.02 K	–	7.36e-08
297.3 K	–	7.36e-08
311.67 K	0.1156	–
311.88 K	0.1154	–
312.1 K	0.1154	–
312.37 K	–	7.05e-08
312.87 K	–	7.03e-08
313.4 K	–	7.04e-08
328.99 K	0.1119	–
329.22 K	0.1118	–
329.43 K	0.1117	–
329.7 K	–	6.75e-08
330.22 K	–	6.75e-08
330.71 K	–	6.72e-08

[2H]c1c([2H])c([2H])c(C([2H])([2H])[2H])c([2H])c1[2H] [toluene-d8]
Conditions	thermal conductivity [W/m/K]	thermal diffusivity [m2/s]
259.69 K	0.1349	–
259.91 K	0.1348	–
260.06 K	0.1348	–
260.47 K	–	8.33e-08
261.03 K	–	8.36e-08
261.42 K	–	8.36e-08
279.35 K	0.1298	–
279.57 K	0.1297	–
279.73 K	0.1296	–
280.14 K	–	7.9e-08
280.69 K	–	7.9e-08
281.08 K	–	7.88e-08
296.9 K	0.1251	–
297.13 K	0.1249	–
297.28 K	0.1249	–
297.69 K	–	7.52e-08
298.25 K	–	7.51e-08
298.64 K	–	7.51e-08
315.84 K	0.12	–
316.08 K	0.1199	–
316.24 K	0.1198	–
316.65 K	–	7.15e-08
317.21 K	–	7.13e-08
317.61 K	–	7.11e-08
326.47 K	0.1173	–
326.7 K	0.1172	–
326.87 K	0.117	–
327.28 K	–	6.95e-08
327.85 K	–	6.93e-08
328.25 K	–	6.9e-08

Cc1ccc(C)c(C)c1 [1,2,4-trimethylbenzene]
Conditions	thermal conductivity [W/m/K]	thermal diffusivity [m2/s]
257.58 K	0.1345	–
257.79 K	0.1344	–
257.93 K	0.1344	–
258.32 K	–	8.89e-08
258.85 K	–	8.91e-08
259.23 K	–	8.92e-08
276.33 K	0.1314	–
276.54 K	0.1313	–
276.69 K	0.1312	–
277.09 K	–	8.61e-08
277.61 K	–	8.58e-08
277.99 K	–	8.6e-08
283.32 K	0.1301	–
283.54 K	0.13	–
283.68 K	0.1299	–
284.07 K	–	8.48e-08
284.63 K	–	8.52e-08
284.98 K	–	8.47e-08
295.54 K	0.1277	–
295.76 K	0.1277	–
295.91 K	0.1275	–
296.3 K	–	8.26e-08
296.84 K	–	8.28e-08
297.21 K	–	8.25e-08
312.75 K	0.1244	–
312.98 K	0.1242	–
313.13 K	0.1241	–
313.53 K	–	8e-08
314.08 K	–	8e-08
314.44 K	–	7.96e-08
330.69 K	0.1205	–
330.93 K	0.1205	–
331.09 K	0.1204	–
331.46 K	–	7.65e-08
332.04 K	–	7.69e-08
332.43 K	–	7.68e-08

c1ccccc1 [benzene]
Conditions	thermal conductivity [W/m/K]	thermal diffusivity [m2/s]
281.18 K	0.1464	–
281.49 K	0.1462	–
281.76 K	0.1461	–
282.86 K	–	9.74e-08
283.9 K	–	9.74e-08
284.75 K	–	9.72e-08
295.92 K	0.1416	–
296.25 K	0.1414	–
296.53 K	0.1413	–
297.67 K	–	9.4e-08
298.78 K	–	9.44e-08
299.68 K	–	9.44e-08
301.25 K	0.1399	–
301.59 K	0.1398	–
301.87 K	0.1396	–
303.02 K	–	9.29e-08
304.13 K	–	9.31e-08
305.05 K	–	9.29e-08
319.14 K	0.134	–
319.49 K	0.1338	–
319.79 K	0.1337	–
321.04 K	–	8.97e-08
322.15 K	–	8.92e-08
323.12 K	–	8.9e-08
